Measurements as given in patent US8003660B2, “Modulators of muscarinic receptors” (Vertex Pharmaceuticals Incorporated, priority 2006, dated 2011).
Read-outs that look alike come from different tables or passages of the source.

Key:
Type in all cases: cell-based
M4 muscarinic receptor = molecular target: T1, M4 muscarinic receptor (Homo sapiens, UniProt P08173); assay: Functional mobilization of intracellular calcium (FLIPR) in CHO cells expressing M4; conditions: for M4 Activity: CHO cells expressing M4, FLIPR calcium assay; for Emax: CHO; for EC50: CHO cells expressing M4, FLIPR calcium
T1 construct: expressed in transfected cells; host or cells: CHO (M4-CHO)
T1 sequence (P08173 1-479): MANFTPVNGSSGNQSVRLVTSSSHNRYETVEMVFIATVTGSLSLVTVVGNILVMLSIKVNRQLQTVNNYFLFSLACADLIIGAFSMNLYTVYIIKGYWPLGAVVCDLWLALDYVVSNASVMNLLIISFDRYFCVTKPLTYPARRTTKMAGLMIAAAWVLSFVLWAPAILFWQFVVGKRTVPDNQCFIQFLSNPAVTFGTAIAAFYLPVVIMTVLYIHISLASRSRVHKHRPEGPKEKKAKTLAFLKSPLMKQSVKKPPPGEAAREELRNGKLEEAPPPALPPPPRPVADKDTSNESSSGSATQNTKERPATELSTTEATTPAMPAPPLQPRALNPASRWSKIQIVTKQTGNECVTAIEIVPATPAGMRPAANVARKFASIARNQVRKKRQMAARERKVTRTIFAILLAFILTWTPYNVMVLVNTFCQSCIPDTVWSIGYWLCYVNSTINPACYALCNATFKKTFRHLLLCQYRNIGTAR
Method in brief: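 Read-out: FLIPR fluorescence (ex 488, em 540 nm) over 60 s. Recombinant CHO lines are dye-loaded (Fluo-3 AM or Calcium 3) with 1 mM probenecid. For antagonist mode, compound is pre-incubated 15 min, or co-applied, then carbachol is added at 3× EC80 per subtype.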

M1 muscarinic receptor = molecular target: T2, M1 muscarinic receptor (Homo sapiens, UniProt P11229); assay: Functional mobilization of intracellular calcium (FLIPR) in CHO cells expressing M1; conditions: for M1 Activity: CHO cells expressing M1, FLIPR calcium assay; for Emax: CHO; for EC50: CHO cells expressing M1, FLIPR calcium
T2 construct: expressed in transfected cells; host or cells: CHO (M1-CHO)
T2 sequence (P11229 1-460): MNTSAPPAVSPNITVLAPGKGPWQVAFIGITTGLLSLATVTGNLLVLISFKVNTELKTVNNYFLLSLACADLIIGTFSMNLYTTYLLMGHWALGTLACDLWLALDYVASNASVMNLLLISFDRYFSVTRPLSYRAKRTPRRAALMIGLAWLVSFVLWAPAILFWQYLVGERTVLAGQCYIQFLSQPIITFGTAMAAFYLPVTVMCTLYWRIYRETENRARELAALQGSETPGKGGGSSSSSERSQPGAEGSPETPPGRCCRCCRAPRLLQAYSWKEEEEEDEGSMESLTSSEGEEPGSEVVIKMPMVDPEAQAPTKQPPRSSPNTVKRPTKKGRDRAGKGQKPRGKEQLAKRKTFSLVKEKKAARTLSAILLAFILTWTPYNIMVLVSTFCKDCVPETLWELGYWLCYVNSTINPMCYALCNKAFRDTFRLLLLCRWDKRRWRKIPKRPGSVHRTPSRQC
Method in brief: (§1)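 Recombinant CHO cells loaded with Fluo-3 AM or Calcium 3 dye in pH 7.4 buffer containing 1 mM probenecid, with 0.5% final DMSO. For agonism, compound is added directly. For inhibition, it is preincubated 15 min, or co-applied, before carbachol at EC80. FLIPR fluorescence (ex 488, em 540 nm) is recorded for 60 s.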

M3 muscarinic receptor = molecular target: T3, M3 muscarinic receptor (Homo sapiens, UniProt P20309); assay: Functional mobilization of intracellular calcium (FLIPR) in CHO cells expressing M3; conditions: for M3 Activity: CHO cells expressing M3, FLIPR calcium assay; for Emax: CHO; for EC50: CHO cells expressing M3, FLIPR calcium
T3 construct: expressed in transfected cells; host or cells: CHO (M3-CHO)
Method in brief: as §1

M2 muscarinic receptor = molecular target: T4, M2 muscarinic receptor (Homo sapiens, UniProt P08172); assay: Functional mobilization of intracellular calcium (FLIPR) in CHO cells expressing M2; conditions: for M2 Activity: CHO cells expressing M2, FLIPR calcium assay; for Emax: CHO; for EC50: CHO cells expressing M2, FLIPR calcium
T4 construct: expressed in transfected cells; host or cells: CHO (M2-CHO)
T4 sequence (P08172 1-466): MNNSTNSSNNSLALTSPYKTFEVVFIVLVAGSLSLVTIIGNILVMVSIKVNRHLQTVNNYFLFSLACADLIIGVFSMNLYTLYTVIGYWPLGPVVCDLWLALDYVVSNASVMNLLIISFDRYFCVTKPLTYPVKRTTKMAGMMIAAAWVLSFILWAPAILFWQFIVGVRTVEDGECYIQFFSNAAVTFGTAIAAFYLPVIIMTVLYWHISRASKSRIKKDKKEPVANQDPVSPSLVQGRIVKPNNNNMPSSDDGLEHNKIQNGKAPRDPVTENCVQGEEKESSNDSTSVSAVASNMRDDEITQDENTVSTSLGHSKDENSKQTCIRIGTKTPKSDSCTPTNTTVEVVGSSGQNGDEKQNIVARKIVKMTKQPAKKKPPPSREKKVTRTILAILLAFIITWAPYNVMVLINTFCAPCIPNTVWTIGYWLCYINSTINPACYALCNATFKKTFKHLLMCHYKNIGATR
Method in brief: as §1

[1] = 100% efficacy = maximum response obtained with the Carbachol control
[2] = 100% = maximum response obtained with the Carbachol control, read-out: M4 Efficacy
[3] = 100% = maximum response obtained with the Carbachol control, read-out: M1 Efficacy
[4] = 100% = maximum response obtained with the Carbachol control, read-out: M3 Efficacy
[5] = 100% = maximum response obtained with the Carbachol control, read-out: M2 Efficacy

T3 sequence (P20309 whole entry): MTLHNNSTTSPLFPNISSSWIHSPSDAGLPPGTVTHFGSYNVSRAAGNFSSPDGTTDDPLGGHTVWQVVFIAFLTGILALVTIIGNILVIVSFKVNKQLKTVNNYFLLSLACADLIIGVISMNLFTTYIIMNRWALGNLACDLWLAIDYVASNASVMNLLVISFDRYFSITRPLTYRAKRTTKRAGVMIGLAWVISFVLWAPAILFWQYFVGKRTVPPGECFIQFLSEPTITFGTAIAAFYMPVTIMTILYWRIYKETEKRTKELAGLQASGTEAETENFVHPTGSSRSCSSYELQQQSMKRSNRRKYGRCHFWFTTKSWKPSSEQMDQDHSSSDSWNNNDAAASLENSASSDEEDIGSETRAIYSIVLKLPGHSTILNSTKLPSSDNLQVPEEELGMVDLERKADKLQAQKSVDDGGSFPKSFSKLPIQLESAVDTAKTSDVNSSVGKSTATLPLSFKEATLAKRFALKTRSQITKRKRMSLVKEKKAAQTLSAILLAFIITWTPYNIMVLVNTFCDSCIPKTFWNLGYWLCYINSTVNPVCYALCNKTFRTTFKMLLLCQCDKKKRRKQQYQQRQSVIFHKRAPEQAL

| Structure (SMILES) | M4 Activity (M4 muscarinic receptor) | Emax (M4 muscarinic receptor; [1]) | M1 Activity (M1 muscarinic receptor) | Emax (M1 muscarinic receptor; [1]) | M3 Activity (M3 muscarinic receptor) | Emax (M3 muscarinic receptor; [1]) | M2 Activity (M2 muscarinic receptor) | Emax (M2 muscarinic receptor; [1]) | EC50 (M4 muscarinic receptor) | Emax (M4 muscarinic receptor; [2]) | EC50 (M1 muscarinic receptor) | Emax (M1 muscarinic receptor; [3]) | EC50 (M3 muscarinic receptor) | Emax (M3 muscarinic receptor; [4]) | EC50 (M2 muscarinic receptor) | Emax (M2 muscarinic receptor; [5]) |
| --- | --- | --- | --- | --- | --- | --- | --- | --- | --- | --- | --- | --- | --- | --- | --- | --- |
| CC(=O)N1CCC[C@H]1C(=O)N[C@H]1CCC2(CCN(CCC(C)(C)C)CC2)c2ccccc21 [compound 194] | +++ (activity was measured to be less than 2.0 μM) | 25 to 100% | +++ (activity was measured to be less than 2.0 μM) | 25 to 100% | + (activity was measured to be greater than 5.0 μM) | < 25% | + (activity was measured to be greater than 5.0 μM) | < 25% |  |  |  |  |  |  |  |  |
| CC(=O)N[C@H]1CCC2(CCN(CCC(C)(C)C)CC2)c2ccccc21 [Compound No. 190, (S)-N-(1′-(3,3-dimethylbutyl)-3,4-dihydro-2H -spiro[naphthalene-1,4′-piperidine]-4-yl)acetamide] | +++ (activity was measured to be less than 2.0 μM) | 25 to 100% | +++ (activity was measured to be less than 2.0 μM) | 25 to 100% | + (activity was measured to be greater than 5.0 μM) | < 25% | +++ (activity was measured to be less than 2.0 μM) | 25 to 100% |  |  |  |  |  |  |  |  |
| CC(=O)N[C@H]1CCC2(CCN(CCC(C)C)CC2)c2ccccc21 [compound 159] |  |  |  |  |  |  |  |  | < 2 µM | 25 to 100% | < 2 µM | 25 to 100% | > 5 µM | < 25% | > 5 µM | < 25% |
| CC(=O)N1CCC(C(=O)N[C@H]2CCC3(CCN(CCC(C)(C)C)CC3)c3cc(F)ccc32)CC1 [compound 81] |  |  |  |  |  |  |  |  | < 2 µM | 25 to 100% | 2 to 5 µM | 25 to 100% | > 5 µM | < 25% | > 5 µM | < 25% |
| CC(C)(C)CCN1CCC2(CC[C@@H](NC(=O)C3CCOCC3)c3ccccc32)CC1 [compound 188] | +++ (activity was measured to be less than 2.0 μM) | 25 to 100% | + (activity was measured to be greater than 5.0 μM) | < 25% | + (activity was measured to be greater than 5.0 μM) | < 25% | + (activity was measured to be greater than 5.0 μM) | < 25% |  |  |  |  |  |  |  |  |
| CC(C)(C)CCN1CCC2(CC1)CC(C(=O)O)c1ccccc12 (centres unmarked) [compound 250] | + (activity was measured to be greater than 5.0 μM) | 25 to 100% | + (activity was measured to be greater than 5.0 μM) | 25 to 100% | + (activity was measured to be greater than 5.0 μM) | < 25% | + (activity was measured to be greater than 5.0 μM) | < 25% |  |  |  |  |  |  |  |  |
| CC(C)(C)CCN1CCC2(CC[C@@H](NC(=O)[C@@H]3CCC(=O)N3)c3ccc(F)cc32)CC1 [compound 75] |  |  |  |  |  |  |  |  | < 2 µM | 25 to 100% | 2 to 5 µM | 25 to 100% | > 5 µM | < 25% | 2 to 5 µM | < 25% |
| CC(C)(C)CCN1CCC2(CC[C@H](NC(=O)CCN3CCCC3=O)c3ccccc32)CC1 [compound 124] |  |  |  |  |  |  |  |  | < 2 µM | 25 to 100% | < 2 µM | 25 to 100% | > 5 µM | < 25% | < 2 µM | 25 to 100% |
| CC(C)(C)CCN1CCC2(CC[C@@H](NC(=O)C3CC3)c3ccccc32)CC1 [compound 3] |  |  |  |  |  |  |  |  | < 2 µM | 25 to 100% | > 5 µM | < 25% | > 5 µM | < 25% | > 5 µM | < 25% |
| CCC(=O)N[C@H]1CC2(CCN(CCC(C)(C)C)CC2)c2ccccc21 [compound 230] |  | 25 to 100% |  | 25 to 100% |  | < 25% |  | < 25% |  |  |  |  |  |  |  |  |
| C[C@@H](C(=O)N[C@@H]1CCC2(CCN(CCC(C)(C)C)CC2)c2cc(F)ccc21)N1CCCC1=O [compound 22] |  |  |  |  |  |  |  |  | < 2 µM | 25 to 100% | 2 to 5 µM | 25 to 100% | > 5 µM | < 25% | 2 to 5 µM | < 25% |
| CC(C)(C)CCN1CCC2(CC1)C[C@H](NC(=O)C1CCCC1)c1ccccc12 [compound 225] | + (activity was measured to be greater than 5.0 μM) | < 25% | + (activity was measured to be greater than 5.0 μM) | < 25% | + (activity was measured to be greater than 5.0 μM) | < 25% | + (activity was measured to be greater than 5.0 μM) | < 25% |  |  |  |  |  |  |  |  |
| CCN(C(=O)CC(F)(F)F)[C@H]1CCC2(CCN(CCC(C)(C)C)CC2)c2ccccc21 [compound 183] |  |  |  |  |  |  |  |  | < 2 µM | 25 to 100% | 2 to 5 µM | 25 to 100% | > 5 µM | < 25% | > 5 µM | < 25% |
| CC(C)CCN1CCC2(CC1)C[C@H](NC(=O)N(C)C)c1ccccc12 [compound 293] | + (activity was measured to be greater than 5.0 μM) | < 25% | + (activity was measured to be greater than 5.0 μM) | < 25% | + (activity was measured to be greater than 5.0 μM) | < 25% | + (activity was measured to be greater than 5.0 μM) | < 25% |  |  |  |  |  |  |  |  |
| CN(C(=O)C1CCCC1)[C@H]1CCC2(CCN(CCC(C)(C)C)CC2)c2ccccc21 [compound 178] |  |  |  |  |  |  |  |  | < 2 µM | 25 to 100% | > 5 µM | < 25% | > 5 µM | < 25% | > 5 µM | < 25% |
| CC(C)(C)CCN1CCC2(CC[C@H](N3CCCCC3=O)c3ccccc32)CC1 [compound 57] |  |  |  |  |  |  |  |  | < 2 µM | 25 to 100% | 2 to 5 µM | 25 to 100% | > 5 µM | < 25% | > 5 µM | < 25% |
| CCOC(=O)N[C@H]1CCC2(CCN(CCC(C)(C)C)CC2)c2ccccc21 [compound 12] |  |  |  |  |  |  |  |  | < 2 µM | 25 to 100% | < 2 µM | 25 to 100% | > 5 µM | < 25% | < 2 µM | 25 to 100% |
| CCC(=O)N[C@H]1CC2(CCN(C(=O)OC(C)(C)C)CC2)c2ccccc21 [compound 271] | + (activity was measured to be greater than 5.0 μM) | < 25% | + (activity was measured to be greater than 5.0 μM) | < 25% | + (activity was measured to be greater than 5.0 μM) | < 25% | + (activity was measured to be greater than 5.0 μM) | < 25% |  |  |  |  |  |  |  |  |
